According to patent publication US20220016080A1, “COMPOUNDS THAT SELECTIVELY AND EFFECTIVELY INHIBIT HAKAI-MEDIATED UBIQUITINATION, AS ANTI-CANCER DRUGS” (FUNDACIÓN PROFESOR NOVOA SANTOS, priority 2018, published 2022):

What was measured:
Type in all cases: cell-based
[1] = tested on: MDCK non-transformed cells; experiment: Soft agar-colony formation assay, MDCK; details: 21 days
Method: Soft agar-colony formation assay was performed on 12-well plates in triplicates at a density of 5×10^3 MDCK and MDCK-Hakai cells/well, or 12×10^3 HT29 cells/well. Cells were seeded in medium with 0.5% low-melting agarose over a layer with 0.75% low-melting agarose (Lonza Rockland, Me., USA). Cells were treated with the indicated inhibitors and DMSO was used as vehicle. Treatment was refreshed every 3 days and, after 21 days for MDCK and MDCK-Hakai cells or 28 days for HT29 cells, number of colonies were quantified. Quantification of five randomly-selected fields of each condition was photographed with a Nikon Eclipse-TI microscope (objective 4×). Experiments were conducted with three triplicates and were repeated three times. Data are represented as mean±SD.

[2] = tested on: normal epithelial MDCK cell line; experiment: MTT cell viability assay, MDCK; details: normal epithelial MDCK compared to Hakai-MDCK; 72 h
Method: (§1) For cytotoxicity assays, 1×10^4 cells were seeded per well into a 96-well plate. After 24 h cells were treated with the indicated inhibitors for 72 h and a MTT colorimetric cell viability assay was performed following manufacturer's instructions (Sigma Aldrich, St Louis, Mo.). Absorbance was measured at 570 and 630 nm using a Multiskan Plus Reader (Nanoquant Infinite M200 Tecan Trading AG, Switzerland). Dose-response curves were designed with Graph Pad Prism Software and the half-maximal inhibitory concentration (IC50) values were calculated. Represented data are the mean±SEM of at least three independent experiments with six replicates per condition.

[3] = tested on: HT29 cells; experiment: BrdU proliferation assay, HT29; details: 48 h
Method: For BrdU assays, 1×10^4 of indicated cells were plated per well into a 96-well plate. After 24 h, cells were treated with the indicated inhibitors for 48 h. Three independent experiments were plated with six replicates per each condition. Cells were treated with […] BrdU for 2 h. BrdU incorporation into newly synthesized DNA was measured using a cell proliferation colorimetric immunoassay kit according to the manufacturer's instructions (Roche, Switzerland). Results are expressed as mean±S.D. Results are represented as percentage of positive cells (mean±S.D) of three independent experiments.

[4] = tested on: HT-29 colon tumour cell line; experiment: MTT cell viability assay, HT29; details: 72 h, analogues at 50-500 μM
Method: as §1

Question: Which “colony formation (soft agar)” value [1] does the source give for `O=C(O)c1ccc(-n2nnnc2SCC(=O)c2ccc([N+](=O)[O-])cc2)cc1` [Hakin-1, 4-(5-{[2-(4-nitrophenyl)-2-oxoethyl]thiol}-1H-tetrazol-1-yl)benzoic acid] here?
Answer: Its value is “no colony formation was detected”.

Question: What about the “sensitivity to treatment (cell viability, MTT)” value [2] of the same molecule?
Answer: Its value is “more resistant”.

Question: What about the “cell proliferation (BrdU)” value [3] of the same molecule?
Answer: The value was “reduced cell proliferation”.

Question: What about the “cytotoxicity effect (cell viability, MTT)” value [4] of the same molecule?
Answer: The value was “important inhibitory response”.
